Experimental data taken from patent publication US8936916B2, “Polypeptides for microbial detection” (3M Innovative Properties Company, priority 2008, dated 2015).
Ends that are not written are not given here. * marks the point of attachment. Myristoyl = CCCCCCCCCCCCCC(=O)*

Test: Permeabilization of DPPC liposomes containing glucose oxidase by phosphorylated dermatoxin (absorbance at 538 nm)
Type: biochemical
Description: DPPC liposomes containing 5 mg/mL glucose oxidase were prepared as described in Example 2. Glucose oxidase activity was measured in a coupled enzyme reaction with horseradish peroxidase as described in Example 2. The various solutions were quickly added to each of the wells of a microplate using a multichannel pipette and the reactions were started (at T=0 hours) with the addition to the wells of a solution containing glucose and 4-AAP.
The ability of the phosphorylated dermatoxin to open liposomes in the presence of phosphatase was tested by preparing a developing solution as described in Example 2. One hundred-fifty microliters of the developing solution was placed in each well of a 96-well microplate. To each column in the plate was added 20 μL of TES buffer containing one of the following concentrations of unpurified dermatoxin: 3.3 mg/mL, 3.3×10^−1 mg/mL, 3.3×10^−2 mg/mL, 3.3×10^−3 mg/mL, 3.3×10^−4 mg/mL, 3.3×10^−5 mg/mL, 3.3×10^−6 mg/mL, or 3.3×10^−7 mg/mL. Negative control wells contained TES buffer with no dermatoxin. Positive control wells buffer contained TES buffer with Triton X-100. Ten-microliter aliquots of the following concentrations of DPPC liposomes (containing 5 mg/mL glucose oxidase) were added to wells in duplicate rows: 0.1 mg lipid/mL, 0.02 mg lipid/mL, 0.004 mg lipid/mL, or plain buffer. To one of the duplicate rows was added 20 μL of 2.5 mg/mL alkaline phosphatase in TES. The other duplicate row received 20 μL of TES buffer. Thus the final dermatoxin concentration in the well varied from […], and the final lipid concentration in the well ranged from 0.005 mg lipid/mL to 2.0×10^−4 mg lipid/mL.
The absorbance was recorded at 538 nm on a SpectraMax M5 plate reader (Molecular Devices, Sunnyvale, Calif.) after two hours incubation at room temperature, and also after overnight incubation (approximately 18 hours). Since the absorbance of several wells was saturated, the overnight samples were diluted 1:10 with 50 mmol TES and the absorbance of the diluted samples was measured.

Which “Absorbance at 538 nm (cytolytic peptide activity)” value (“Absorbance at 538 nm” below) (2 hrs, lipid conc. 0, dermatoxin mass 3.3 × 10^−5 mg, with phosphatase) does the source give for “SLGSFLKGVGTTLASVGKVVSDQFGKLLQAGQ (Myristoyl-SLGSFLKGVGTTLASVGKVVSDQFGKLLQAGQ; also: phosphorylated) [phosphorylated dermatoxin, fully phosphorylated dermatoxin, unpurified crude preparation]” here?
The value was 0.122 absorbance units.

And the “Absorbance at 538 nm” value (2 hrs, lipid conc. 0, dermatoxin mass 3.3 × 10^−5 mg, without phosphatase)?
The value was 0.121 absorbance units.

What about the “Absorbance at 538 nm” value (2 hrs, lipid conc. 0, dermatoxin mass 3.3 × 10^−6 mg, with phosphatase) of the same sequence?
Its value is 0.120 absorbance units.

And the “Absorbance at 538 nm” value (2 hrs, lipid conc. 0, dermatoxin mass 3.3 × 10^−6 mg, without phosphatase)?
Its value is 0.115 absorbance units.

What about the “Absorbance at 538 nm” value (2 hrs, lipid conc. 0, dermatoxin mass 3.3 × 10^−7 mg, with phosphatase) of the same sequence?
Its value is 0.118 absorbance units.

What about the “Absorbance at 538 nm” value (2 hrs, lipid conc. 0, dermatoxin mass 3.3 × 10^−7 mg, without phosphatase) of the same sequence?
Its value is 0.116 absorbance units.

And the “Absorbance at 538 nm” value (2 hrs, lipid conc. 0, dermatoxin mass 3.3 × 10^−8 mg, with phosphatase)?
The value was 0.119 absorbance units.

And the “Absorbance at 538 nm” value (2 hrs, lipid conc. 0, dermatoxin mass 3.3 × 10^−8 mg, without phosphatase)?
Its value is 0.114 absorbance units.

And the “Absorbance at 538 nm” value (2 hrs, lipid conc. 0, dermatoxin mass 3.3 × 10^−9 mg, with phosphatase)?
The value was 0.118 absorbance units.

And the “Absorbance at 538 nm” value (2 hrs, lipid conc. 0, dermatoxin mass 3.3 × 10^−9 mg, without phosphatase)?
The value was 0.113 absorbance units.

What about the “Absorbance at 538 nm” value (2 hrs, lipid conc. 0.004, dermatoxin mass 3.3 × 10^−5 mg, with phosphatase) of the same sequence?
The value was 0.204 absorbance units.

And the “Absorbance at 538 nm” value (2 hrs, lipid conc. 0.004, dermatoxin mass 3.3 × 10^−5 mg, without phosphatase)?
The value was 0.200 absorbance units.

And the “Absorbance at 538 nm” value (2 hrs, lipid conc. 0.004, dermatoxin mass 3.3 × 10^−6 mg, with phosphatase)?
Its value is 0.197 absorbance units.

And the “Absorbance at 538 nm” value (2 hrs, lipid conc. 0.004, dermatoxin mass 3.3 × 10^−6 mg, without phosphatase)?
The value was 0.161 absorbance units.

What about the “Absorbance at 538 nm” value (2 hrs, lipid conc. 0.004, dermatoxin mass 3.3 × 10^−7 mg, with phosphatase) of the same sequence?
Its value is 0.130 absorbance units.

And the “Absorbance at 538 nm” value (2 hrs, lipid conc. 0.004, dermatoxin mass 3.3 × 10^−7 mg, without phosphatase)?
Its value is 0.119 absorbance units.

What about the “Absorbance at 538 nm” value (2 hrs, lipid conc. 0.004, dermatoxin mass 3.3 × 10^−8 mg, with phosphatase) of the same sequence?
Its value is 0.126 absorbance units.

And the “Absorbance at 538 nm” value (2 hrs, lipid conc. 0.004, dermatoxin mass 3.3 × 10^−8 mg, without phosphatase)?
The value was 0.111 absorbance units.

What about the “Absorbance at 538 nm” value (2 hrs, lipid conc. 0.004, dermatoxin mass 3.3 × 10^−9 mg, with phosphatase) of the same sequence?
The value was 0.126 absorbance units.

What about the “Absorbance at 538 nm” value (2 hrs, lipid conc. 0.004, dermatoxin mass 3.3 × 10^−9 mg, without phosphatase) of the same sequence?
The value was 0.115 absorbance units.

And the “Absorbance at 538 nm” value (2 hrs, lipid conc. 0.02, dermatoxin mass 3.3 × 10^−5 mg, with phosphatase)?
Its value is 0.546 absorbance units.

And the “Absorbance at 538 nm” value (2 hrs, lipid conc. 0.02, dermatoxin mass 3.3 × 10^−5 mg, without phosphatase)?
The value was 0.633 absorbance units.

What about the “Absorbance at 538 nm” value (2 hrs, lipid conc. 0.02, dermatoxin mass 3.3 × 10^−6 mg, with phosphatase) of the same sequence?
The value was 0.480 absorbance units.

What about the “Absorbance at 538 nm” value (2 hrs, lipid conc. 0.02, dermatoxin mass 3.3 × 10^−6 mg, without phosphatase) of the same sequence?
Its value is 0.263 absorbance units.

What about the “Absorbance at 538 nm” value (2 hrs, lipid conc. 0.02, dermatoxin mass 3.3 × 10^−7 mg, with phosphatase) of the same sequence?
The value was 0.140 absorbance units.

What about the “Absorbance at 538 nm” value (2 hrs, lipid conc. 0.02, dermatoxin mass 3.3 × 10^−7 mg, without phosphatase) of the same sequence?
The value was 0.141 absorbance units.

What about the “Absorbance at 538 nm” value (2 hrs, lipid conc. 0.02, dermatoxin mass 3.3 × 10^−8 mg, with phosphatase) of the same sequence?
Its value is 0.132 absorbance units.

What about the “Absorbance at 538 nm” value (2 hrs, lipid conc. 0.02, dermatoxin mass 3.3 × 10^−8 mg, without phosphatase) of the same sequence?
The value was 0.111 absorbance units.

And the “Absorbance at 538 nm” value (2 hrs, lipid conc. 0.02, dermatoxin mass 3.3 × 10^−9 mg, with phosphatase)?
Its value is 0.124 absorbance units.

And the “Absorbance at 538 nm” value (2 hrs, lipid conc. 0.02, dermatoxin mass 3.3 × 10^−9 mg, without phosphatase)?
The value was 0.114 absorbance units.

And the “Absorbance at 538 nm” value (2 hrs, lipid conc. 0.1, dermatoxin mass 3.3 × 10^−5 mg, with phosphatase)?
The value was 2.034 absorbance units.

What about the “Absorbance at 538 nm” value (2 hrs, lipid conc. 0.1, dermatoxin mass 3.3 × 10^−5 mg, without phosphatase) of the same sequence?
Its value is 1.521 absorbance units.

What about the “Absorbance at 538 nm” value (2 hrs, lipid conc. 0.1, dermatoxin mass 3.3 × 10^−6 mg, with phosphatase) of the same sequence?
The value was 1.473 absorbance units.

What about the “Absorbance at 538 nm” value (2 hrs, lipid conc. 0.1, dermatoxin mass 3.3 × 10^−6 mg, without phosphatase) of the same sequence?
Its value is 0.759 absorbance units.

What about the “Absorbance at 538 nm” value (2 hrs, lipid conc. 0.1, dermatoxin mass 3.3 × 10^−7 mg, with phosphatase) of the same sequence?
Its value is 0.173 absorbance units.

And the “Absorbance at 538 nm” value (2 hrs, lipid conc. 0.1, dermatoxin mass 3.3 × 10^−7 mg, without phosphatase)?
The value was 0.267 absorbance units.

What about the “Absorbance at 538 nm” value (2 hrs, lipid conc. 0.1, dermatoxin mass 3.3 × 10^−8 mg, with phosphatase) of the same sequence?
Its value is 0.136 absorbance units.

And the “Absorbance at 538 nm” value (2 hrs, lipid conc. 0.1, dermatoxin mass 3.3 × 10^−8 mg, without phosphatase)?
Its value is 0.132 absorbance units.

And the “Absorbance at 538 nm” value (2 hrs, lipid conc. 0.1, dermatoxin mass 3.3 × 10^−9 mg, with phosphatase)?
The value was 0.134 absorbance units.

And the “Absorbance at 538 nm” value (2 hrs, lipid conc. 0.1, dermatoxin mass 3.3 × 10^−9 mg, without phosphatase)?
Its value is 0.121 absorbance units.

And the “Absorbance at 538 nm” value (18 hrs (d), 1:10-diluted sample, lipid conc. 0, dermatoxin mass 3.3 × 10^−5 mg, with phosphatase)?
The value was 0.053 absorbance units.

What about the “Absorbance at 538 nm” value (18 hrs (d), 1:10-diluted sample, lipid conc. 0, dermatoxin mass 3.3 × 10^−5 mg, without phosphatase) of the same sequence?
Its value is 0.054 absorbance units.

And the “Absorbance at 538 nm” value (18 hrs (d), 1:10-diluted sample, lipid conc. 0, dermatoxin mass 3.3 × 10^−6 mg, with phosphatase)?
The value was 0.053 absorbance units.

And the “Absorbance at 538 nm” value (18 hrs (d), 1:10-diluted sample, lipid conc. 0, dermatoxin mass 3.3 × 10^−6 mg, without phosphatase)?
The value was 0.052 absorbance units.

And the “Absorbance at 538 nm” value (18 hrs (d), 1:10-diluted sample, lipid conc. 0, dermatoxin mass 3.3 × 10^−7 mg, with phosphatase)?
The value was 0.052 absorbance units.

And the “Absorbance at 538 nm” value (18 hrs (d), 1:10-diluted sample, lipid conc. 0, dermatoxin mass 3.3 × 10^−7 mg, without phosphatase)?
Its value is 0.054 absorbance units.

What about the “Absorbance at 538 nm” value (18 hrs (d), 1:10-diluted sample, lipid conc. 0, dermatoxin mass 3.3 × 10^−8 mg, with phosphatase) of the same sequence?
The value was 0.054 absorbance units.

What about the “Absorbance at 538 nm” value (18 hrs (d), 1:10-diluted sample, lipid conc. 0, dermatoxin mass 3.3 × 10^−8 mg, without phosphatase) of the same sequence?
Its value is 0.053 absorbance units.

And the “Absorbance at 538 nm” value (18 hrs (d), 1:10-diluted sample, lipid conc. 0, dermatoxin mass 3.3 × 10^−9 mg, with phosphatase)?
The value was 0.053 absorbance units.

And the “Absorbance at 538 nm” value (18 hrs (d), 1:10-diluted sample, lipid conc. 0, dermatoxin mass 3.3 × 10^−9 mg, without phosphatase)?
Its value is 0.053 absorbance units.

And the “Absorbance at 538 nm” value (18 hrs (d), 1:10-diluted sample, lipid conc. 0.004, dermatoxin mass 3.3 × 10^−5 mg, with phosphatase)?
Its value is 0.092 absorbance units.

And the “Absorbance at 538 nm” value (18 hrs (d), 1:10-diluted sample, lipid conc. 0.004, dermatoxin mass 3.3 × 10^−5 mg, without phosphatase)?
Its value is 0.096 absorbance units.

What about the “Absorbance at 538 nm” value (18 hrs (d), 1:10-diluted sample, lipid conc. 0.004, dermatoxin mass 3.3 × 10^−6 mg, with phosphatase) of the same sequence?
Its value is 0.090 absorbance units.

What about the “Absorbance at 538 nm” value (18 hrs (d), 1:10-diluted sample, lipid conc. 0.004, dermatoxin mass 3.3 × 10^−6 mg, without phosphatase) of the same sequence?
Its value is 0.081 absorbance units.

What about the “Absorbance at 538 nm” value (18 hrs (d), 1:10-diluted sample, lipid conc. 0.004, dermatoxin mass 3.3 × 10^−7 mg, with phosphatase) of the same sequence?
The value was 0.066 absorbance units.

And the “Absorbance at 538 nm” value (18 hrs (d), 1:10-diluted sample, lipid conc. 0.004, dermatoxin mass 3.3 × 10^−7 mg, without phosphatase)?
The value was 0.056 absorbance units.

And the “Absorbance at 538 nm” value (18 hrs (d), 1:10-diluted sample, lipid conc. 0.004, dermatoxin mass 3.3 × 10^−8 mg, with phosphatase)?
The value was 0.063 absorbance units.

And the “Absorbance at 538 nm” value (18 hrs (d), 1:10-diluted sample, lipid conc. 0.004, dermatoxin mass 3.3 × 10^−8 mg, without phosphatase)?
Its value is 0.054 absorbance units.

And the “Absorbance at 538 nm” value (18 hrs (d), 1:10-diluted sample, lipid conc. 0.004, dermatoxin mass 3.3 × 10^−9 mg, with phosphatase)?
Its value is 0.062 absorbance units.
